The series concerns Fibroblast L 929. Briefly: Cytotoxic effect of PDT on fibroblasts (MTT). In kind it is cell-based. To be noted: 100 μM photosensitiser, oxygen carrier, 20 min irradiation, MTT after 24 hours; hypochlorite 100 μL of 5.25%. How it is done:
The experiment described below was performed to assess the cytotoxic effect of PDT in combination with two photosensitisers: […] Sodium hypochlorite is traditionally used to disinfect root canals. Fibroblast L 929 was used in this experiment. Approximately 3.2×10^5 cells were seeded in 4 cm diameter culture dishes in DMEM media supplemented with 10% FCS. Cells were grown by incubating at 37° C., in a carbon dioxide incubator for 24 hours. After the incubation period, 100 μL of ICG (1 mM) was added (the final concentration of ICG was 100 μM). 100 μL of oxygen carrier, perfluorodecahydro naphthalene,] was also added and irradiation was performed for 20 minutes (without shaking). The cells were left in the media for 24 hours under incubation. Later, the supernatant media was removed without disturbing the cell line. The cell layer was washed with 1 mL PBS twice. MTT (0.125 mg % in DMEM), as an indicator of the viable status of cells in the media was added to the Petri dish and incubated at 37° C., for 4 hours. The excess of dye was washed with PBS (2 mL). MTT formed in the Petri dish was extracted and added to 1 mL of DMSO. The optical density at 570 nm was measured. Sodium hypochlorite (100 μL of 5.25%) was used as a control in this experiment. All chemicals were purchased from Sigma Aldrich, St. Louis. Fibroblast L 929 was used in this experiment. […] The optical density at 570 nm was measured. […]

SMILES strings stand for the structures.

Consider one molecule from patent US20090285766A1, “Photosensitising Composition and Uses Thereof” (National University of Singapore, priority 2005, published 2009).

For `CC1(C)C(/C=C/C=C/C=C/C=C2\N(CCCCS(=O)(=O)O)c3ccc4ccccc4c3C2(C)C)=[N+](CCCCS(=O)(=O)[O-])c2ccc3ccccc3c21` [ICG, Indocyanine Green], the “cytotoxicity (cells surviving after PDT, ranking)” value is given as “lesser cytotoxicity”.
